Data as given in ChEMBL document CHEMBL1201862, “PubChem BioAssay data set” (2004).
Active and inactive are the calls of the source.

Tests used:
[1] = target: T1, RNA-binding protein pos-1 (Caenorhabditis elegans, UniProt G5EF15); assay: inhibitors of POS-1/mex-3 RNA binding, dose response, biochemical, fluorescence polarization (AID 1964);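 note: purified POS-1 fused to maltose binding protein made in E. coli; potency of compounds blocking POS-1 binding to fluorescent RNA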
T1 sequence (G5EF15 whole entry): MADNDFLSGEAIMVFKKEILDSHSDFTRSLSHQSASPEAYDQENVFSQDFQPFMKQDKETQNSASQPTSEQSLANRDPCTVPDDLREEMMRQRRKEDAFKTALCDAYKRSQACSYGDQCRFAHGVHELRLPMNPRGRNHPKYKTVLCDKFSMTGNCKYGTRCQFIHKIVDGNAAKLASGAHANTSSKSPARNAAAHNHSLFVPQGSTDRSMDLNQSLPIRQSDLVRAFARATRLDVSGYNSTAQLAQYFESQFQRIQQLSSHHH

[2] = target: T2, Zinc finger protein mex-5 (Caenorhabditis elegans, UniProt Q9XUB2); assay: MEX-5/TCR-2 RNA interaction inhibitors, dose response, biochemical, C. elegans, fluorescence polarization (AID 1960)
T2 sequence (Q9XUB2 whole entry): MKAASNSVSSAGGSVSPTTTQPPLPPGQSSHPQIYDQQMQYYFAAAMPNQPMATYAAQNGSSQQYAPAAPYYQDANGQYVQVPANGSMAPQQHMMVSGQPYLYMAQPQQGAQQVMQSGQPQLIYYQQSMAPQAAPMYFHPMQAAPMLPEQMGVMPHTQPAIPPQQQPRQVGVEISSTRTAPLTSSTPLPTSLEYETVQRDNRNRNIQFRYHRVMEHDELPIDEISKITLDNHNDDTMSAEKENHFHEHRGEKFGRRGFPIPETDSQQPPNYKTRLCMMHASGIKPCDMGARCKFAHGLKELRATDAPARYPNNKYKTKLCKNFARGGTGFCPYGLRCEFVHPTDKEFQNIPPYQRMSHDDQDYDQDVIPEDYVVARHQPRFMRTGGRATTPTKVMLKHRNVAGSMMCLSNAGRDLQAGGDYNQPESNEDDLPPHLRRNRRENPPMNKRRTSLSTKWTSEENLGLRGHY

[3] = Luminescence Cell-Based Dose Confirmation HTS to Identify Activators of 5'UTR Stem-Loop Driven Alpha-Synuclein mRNA Translation in H4 Neuroglioblastoma Cells. [Related pubchem assays: 1829 (Project Summary), 1814 (Primary HTS)]; type: functional
[4] = Luminescence Cell-Based Dose Response HTS to Identify Activators of Luciferase Translation or Activity in H4 […] Cells. [Related pubchem assays: 1829 (Project Summary), 1814 (Primary HTS)]; type: functional
[5] = test system: H4; assay: Luminescence Cell-Based Dose Response HTS to Identify Activators of 5'UTR Stem-Loop Driven Prion Protein mRNA Translation in H4 Neuroglioblastoma Cells. [Related pubchem assays: 1829 (Project Summary), 1814 (Primary HTS)]; type: functional; settings: Homo sapiens
[6] = target: T3, Calpain-2 catalytic subunit (Sus scrofa, UniProt P43367); assay: pig calpain II inhibitor potency, dose response, biochemical, fluorogenic peptide substrate (AID 1420); type: functional
T3 sequence (P43367 whole entry): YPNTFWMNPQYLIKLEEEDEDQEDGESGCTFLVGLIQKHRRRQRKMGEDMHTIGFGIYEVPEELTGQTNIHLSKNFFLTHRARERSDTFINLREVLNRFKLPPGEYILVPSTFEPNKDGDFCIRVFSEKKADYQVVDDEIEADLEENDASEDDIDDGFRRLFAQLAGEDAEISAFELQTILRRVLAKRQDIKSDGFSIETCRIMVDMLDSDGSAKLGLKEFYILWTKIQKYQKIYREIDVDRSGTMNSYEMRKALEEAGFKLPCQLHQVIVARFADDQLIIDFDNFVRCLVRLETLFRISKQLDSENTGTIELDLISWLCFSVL

[7] = target: Luciferin 4-monooxygenase (Photinus pyralis, UniProt P08659); assay: firefly luciferase enzyme inhibitors, dose response, biochemical, luminescence (AID 1891)
Sequence of Luciferin 4-monooxygenase (P08659 whole entry): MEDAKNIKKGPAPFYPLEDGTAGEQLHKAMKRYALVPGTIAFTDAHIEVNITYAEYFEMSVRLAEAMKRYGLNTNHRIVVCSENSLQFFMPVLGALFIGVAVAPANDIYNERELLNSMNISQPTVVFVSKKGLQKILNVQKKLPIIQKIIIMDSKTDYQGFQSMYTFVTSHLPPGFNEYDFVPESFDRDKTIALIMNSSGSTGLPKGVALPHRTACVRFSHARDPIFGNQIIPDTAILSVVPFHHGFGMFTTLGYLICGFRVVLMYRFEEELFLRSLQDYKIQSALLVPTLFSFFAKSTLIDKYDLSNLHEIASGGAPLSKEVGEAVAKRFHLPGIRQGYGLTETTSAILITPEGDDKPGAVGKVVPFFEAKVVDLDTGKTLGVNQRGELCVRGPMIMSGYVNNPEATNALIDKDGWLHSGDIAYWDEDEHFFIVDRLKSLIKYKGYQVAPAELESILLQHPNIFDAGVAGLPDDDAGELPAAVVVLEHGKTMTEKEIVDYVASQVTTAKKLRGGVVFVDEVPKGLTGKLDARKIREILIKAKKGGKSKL

[8] = Luminescence Cell-Based Dose Confirmation HTS to Identify Inhibitors of Platelet Dense Granule Release. [Related pubchem assays: 1663 (Primary HTS), 1678 (Summary of Project)]; type: functional
[9] = target: Large T antigen (Simian virus 40, UniProt P03070); type: functional, Betapolyomavirus macacae;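 note: Confirmatory-stage PubChem screen for compounds that inhibit SV40 T antigen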
Sequence of Large T antigen (P03070 whole entry, the tested form may be a part): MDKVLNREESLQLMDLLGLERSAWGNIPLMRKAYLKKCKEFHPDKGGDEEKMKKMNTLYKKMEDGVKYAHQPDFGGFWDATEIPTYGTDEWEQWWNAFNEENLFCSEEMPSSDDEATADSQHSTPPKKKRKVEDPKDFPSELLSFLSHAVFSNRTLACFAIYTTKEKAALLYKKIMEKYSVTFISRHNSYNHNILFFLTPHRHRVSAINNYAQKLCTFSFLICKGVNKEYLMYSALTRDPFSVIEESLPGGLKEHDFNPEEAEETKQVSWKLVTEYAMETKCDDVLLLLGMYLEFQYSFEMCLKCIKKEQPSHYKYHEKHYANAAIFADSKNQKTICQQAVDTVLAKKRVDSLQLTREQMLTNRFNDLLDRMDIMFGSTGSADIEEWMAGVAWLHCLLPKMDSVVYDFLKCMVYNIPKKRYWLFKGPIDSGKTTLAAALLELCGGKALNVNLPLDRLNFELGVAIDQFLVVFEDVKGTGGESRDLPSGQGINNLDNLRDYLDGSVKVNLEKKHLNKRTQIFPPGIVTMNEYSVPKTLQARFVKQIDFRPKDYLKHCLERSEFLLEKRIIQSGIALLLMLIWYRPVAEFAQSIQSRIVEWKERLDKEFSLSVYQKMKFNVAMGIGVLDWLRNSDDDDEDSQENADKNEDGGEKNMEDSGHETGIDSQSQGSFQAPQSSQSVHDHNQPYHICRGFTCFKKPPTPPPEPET

[10] = inhibitors of HIV Env-driven cell fusion, dose response, cherry-pick (AID 652057); type: functional, cell-based
[11] = inhibitors of clade B AD8 Env fusion, dose response, cell-based, cherry-pick (AID 652062); type: functional;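 note: luciferase signal from cell-cell fusion driven by HIV-1 clade B AD8 Env; potency is for inhibitors of fusion seen as a drop in luminescence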
[12] = target: Cytochrome P450 2C19 (Homo sapiens, UniProt P33261); assay: Cytochrome panel assay with activity outcomes. Panel member name: p450-cyp2c19 Compounds with AC50 equal or less than 10 uM are considered active; type: functional
Sequence of Cytochrome P450 2C19 (P33261 whole entry): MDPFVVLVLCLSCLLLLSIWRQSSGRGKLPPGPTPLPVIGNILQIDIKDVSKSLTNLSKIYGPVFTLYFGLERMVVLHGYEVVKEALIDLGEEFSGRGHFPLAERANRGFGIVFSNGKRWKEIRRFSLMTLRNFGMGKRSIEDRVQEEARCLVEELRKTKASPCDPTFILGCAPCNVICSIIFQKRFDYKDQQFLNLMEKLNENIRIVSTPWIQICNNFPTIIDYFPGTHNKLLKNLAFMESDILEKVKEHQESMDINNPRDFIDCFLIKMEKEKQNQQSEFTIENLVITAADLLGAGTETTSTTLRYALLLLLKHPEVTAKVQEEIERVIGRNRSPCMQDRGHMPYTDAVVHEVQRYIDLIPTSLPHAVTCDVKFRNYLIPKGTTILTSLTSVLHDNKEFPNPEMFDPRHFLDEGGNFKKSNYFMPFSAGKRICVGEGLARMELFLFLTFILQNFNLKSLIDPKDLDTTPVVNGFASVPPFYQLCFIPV

[13] = target: Cytochrome P450 3A4 (Homo sapiens, UniProt P08684);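 note: CYP3A4 tested as one member of a cytochrome P450 panel screen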
Sequence of Cytochrome P450 3A4 (P08684 whole entry): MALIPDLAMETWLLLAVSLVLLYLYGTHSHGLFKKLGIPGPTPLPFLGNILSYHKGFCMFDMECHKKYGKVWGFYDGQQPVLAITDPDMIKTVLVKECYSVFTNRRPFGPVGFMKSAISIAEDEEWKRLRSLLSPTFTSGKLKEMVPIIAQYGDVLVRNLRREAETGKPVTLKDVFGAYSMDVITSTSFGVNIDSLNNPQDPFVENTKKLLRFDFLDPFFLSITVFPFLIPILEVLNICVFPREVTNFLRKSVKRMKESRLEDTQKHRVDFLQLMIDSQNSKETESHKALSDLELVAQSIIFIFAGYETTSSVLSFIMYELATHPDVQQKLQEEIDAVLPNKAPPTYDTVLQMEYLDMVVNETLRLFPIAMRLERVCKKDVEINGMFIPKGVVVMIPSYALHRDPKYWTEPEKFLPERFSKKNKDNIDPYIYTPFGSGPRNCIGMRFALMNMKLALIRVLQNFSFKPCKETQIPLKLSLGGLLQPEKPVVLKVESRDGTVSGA

[14] = target: Cytochrome P450 2C9 (Homo sapiens, UniProt P11712)
Sequence of Cytochrome P450 2C9 (P11712 whole entry): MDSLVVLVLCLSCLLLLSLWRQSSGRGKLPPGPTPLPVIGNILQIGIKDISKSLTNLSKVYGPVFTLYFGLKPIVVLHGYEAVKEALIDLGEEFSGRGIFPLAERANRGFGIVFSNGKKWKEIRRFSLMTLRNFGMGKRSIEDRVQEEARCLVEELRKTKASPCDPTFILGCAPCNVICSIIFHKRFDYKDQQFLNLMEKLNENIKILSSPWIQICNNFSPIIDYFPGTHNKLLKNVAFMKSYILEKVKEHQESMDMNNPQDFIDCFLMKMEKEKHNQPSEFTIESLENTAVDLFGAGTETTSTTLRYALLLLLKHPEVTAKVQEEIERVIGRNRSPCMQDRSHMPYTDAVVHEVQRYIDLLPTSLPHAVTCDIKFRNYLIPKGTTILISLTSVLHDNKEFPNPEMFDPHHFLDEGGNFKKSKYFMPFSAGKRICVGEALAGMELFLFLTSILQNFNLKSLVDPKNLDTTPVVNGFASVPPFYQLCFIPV

[15] = target: T4, Cytochrome P450 1A2 (Homo sapiens, UniProt P05177);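 note: PubChem cytochrome P450 panel assay, CYP1A2 panel member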
T4 sequence (P05177 whole entry): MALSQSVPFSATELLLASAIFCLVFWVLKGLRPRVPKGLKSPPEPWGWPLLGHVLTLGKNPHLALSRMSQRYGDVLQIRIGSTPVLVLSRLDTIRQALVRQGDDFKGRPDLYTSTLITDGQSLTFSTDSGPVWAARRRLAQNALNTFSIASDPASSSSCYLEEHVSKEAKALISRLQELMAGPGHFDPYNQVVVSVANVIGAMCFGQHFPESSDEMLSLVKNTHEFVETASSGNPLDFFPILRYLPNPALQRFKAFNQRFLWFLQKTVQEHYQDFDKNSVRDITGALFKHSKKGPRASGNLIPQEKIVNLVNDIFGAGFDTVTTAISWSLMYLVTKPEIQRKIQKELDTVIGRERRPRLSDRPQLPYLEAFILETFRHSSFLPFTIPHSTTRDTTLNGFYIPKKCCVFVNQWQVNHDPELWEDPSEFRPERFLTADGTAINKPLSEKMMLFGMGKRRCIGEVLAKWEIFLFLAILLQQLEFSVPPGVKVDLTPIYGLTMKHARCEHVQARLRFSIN

## O=C(NC1CC1)C1Nc2ccc(OC(F)(F)F)cc2C2C=CCC12 (configuration not stated)
[1]
  EC50: > 300 µM (not active)
[2]
  EC50: > 300 µM (not active)

## Cc1ccccc1N1C(=O)NC(=O)/C(=C\c2cc(C)n(C)c2C)C1=O
[1]
  EC50: > 300 µM (not active)
[2]
  EC50: > 300 µM (not active)

## COc1ccc(C(=O)COC(=O)c2cc(O)nc3ccccc23)c(OC)c1
[3]
  EC50: 8.87 µM (active)
[4]
  EC50: 54 µM (active)
[5]
  EC50: 20.7 µM (active)

## CCOC(=O)c1ccc(NC(=O)Cn2c(-c3nonc3N)nc3ccccc32)cc1
[6]
  IC50: 18.8 µM (not active)

## CCn1cc(NC(=O)Nc2ccccc2C(=O)OC)c(C(N)=O)n1
[7]
  EC50: > 112 µM (not active)
[8]
  EC50: > 112 µM (not active)

## COc1ccc(C(=O)CSc2nc(N)nc(SC)c2C#N)cc1
[6]
  IC50: 17.3 µM (not active)

## CC1CN=C(Nc2ccc(N(C)C)cc2)S1 (configuration not stated)
[9]
  IC50: 9.27 µM (active)

## c1ccc2[nH]c(-c3ccc4c(c3)OCO4)nc2c1
[7]
  EC50: 1.16 µM (active)
[8]
  EC50: 6.52 µM (active)

## COc1cccc(-n2cnc3sc(-c4ccccc4)cc3c2=O)c1
[3]
  EC50: 0.185 µM (active)
[4]
  EC50: 0.124 µM (active)
[5]
  EC50: 0.136 µM (active)

## CN1C(=O)c2cc(NC(=O)c3cscn3)ccc2OC[C@H]2O[C@H](CC(=O)NCc3ccc(Cl)c(Cl)c3)CC[C@H]21
[10]
  AC50: 11.3 µM (active)
[11]
  AC50: 41.8 µM (active)

## COc1ccc(N2CCC(CN=C(S)Nc3ccc(C)cc3C)C2)cc1 (configuration not stated)
[9]
  IC50: 11 µM (active)

## C[C@@H]1CN([C@@H](C)CO)S(=O)(=O)c2ccc(-c3cccc(F)c3)cc2O[C@@H]1CN(C)S(=O)(=O)c1ccc(F)cc1
[10]
  AC50: 1.34 µM (active)
[11]
  AC50: 24.2 µM (active)

## Cc1ccccc1N1C(=O)NC(=O)/C(=C/Nc2ccc(N(C)C)cc2)C1=O
[9]
  IC50: 6.73 µM (active)
[12]; read-out: AC50
  AC50: 22.4 µM (inconclusive)
[13]
  AC50: 0.398 µM (inconclusive)

## CCC(=O)N1CCc2nc(-c3ccccc3)sc2C1
[3]
  EC50: 7.33 µM (active)
[4]
  EC50: 20.4 µM (active)
[5]
  EC50: 46.3 µM (active)

## COc1ccccc1OCCN1C(=O)S/C(=C\c2ccco2)C1=O
[14]
  AC50: inconclusive

## CCCCNC(=O)c1ccccc1C(=O)NCCCC
[6]
  IC50: < 0.4 µM (not active)

## Cc1ccc(C(=O)C2CCN(CC(=O)Nc3ccc4c(c3)OCCO4)CC2)cc1
[7]
  EC50: > 112 µM (not active)
[8]
  EC50: > 112 µM (not active)

## CCOC(=O)C(OC(=O)c1sc(=S)n(C)c1C)C(C)=O (configuration not stated)
[7]
  EC50: > 112 µM (not active)
[8]
  EC50: > 112 µM (not active)

## CC1OC(Oc2c(-c3cc(O)c(O)c(O)c3)oc3cc(O)cc(O)c3c2=O)C(O)C(O)C1O (configuration not stated)
[1]
  EC50: 18 µM (active)
[2]
  EC50: 17.2 µM (active)

## COc1cc(C2C(C#N)=C(N)OC3=C2C(=O)CC(C)(C)C3)ccc1OCCN1CCOCC1 (configuration not stated)
[1]
  EC50: > 300 µM (not active)
[2]
  EC50: > 300 µM (not active)

## COC(=O)c1ccc(NC(S)=NC2CC3CCC2C3)cc1 (configuration not stated)
[6]
  IC50: 16.4 µM (active)

## Cc1ccc(-c2nnc(CCC(=O)NCC3C4CC5CC(C4)CC3C5)o2)s1 (configuration not stated)
[3]
  EC50: 11.6 µM (active)
[4]
  EC50: 17.6 µM (active)
[5]
  EC50: 20.2 µM (active)

## Cc1ccc(-c2nc3ncccn3c2NC(=O)C2CC2)cc1
[7]
  EC50: > 112 µM (not active)
[8]
  EC50: > 112 µM (not active)
[12]
  AC50: inconclusive
[15]
  AC50: 15.8 µM (inconclusive)

## O=C(NCCCN1CCOCC1)C1Nc2ccc(OC(F)(F)F)cc2C2C=CCC12 (configuration not stated)
[1]
  EC50: > 300 µM (not active)
[2]
  EC50: > 300 µM (not active)

## Cc1ccc(NC(=O)CN2CCC(Cc3ccccc3)CC2)cc1S(=O)(=O)N(C)C
[6]
  IC50: 27.3 µM (not active)

## O=C(N/N=C/C(Br)=C/c1ccccc1)C1CC1
[3]
  EC50: 18.7 µM (active)
[4]
  EC50: 60.3 µM (active)
[5]
  EC50: 15.8 µM (active)

## COc1ccc(COC(=O)Nc2cc3c(C(F)(F)F)nn(C)c3s2)cc1
[6]
  IC50: 14 µM (active)

## CCOc1cc(/C=N/NC(=O)c2ccncc2)ccc1OS(C)(=O)=O
[6]
  IC50: < 0.4 µM (not active)

## CC(=O)NS(=O)(=O)c1ccc(/N=c2\ssc3c2-c2cc(C)ccc2NC3(C)C)cc1
[9]
  IC50: > 100 µM (active)

## CCOC(=O)c1ccc(/N=c2\scc(C)n2CC)cc1
[6]
  IC50: > 50 µM (not active)

## O=C(OCCc1ccccc1)c1cc(O)c(O)c(O)c1
[1]
  EC50: > 300 µM (not active)
[2]
  EC50: 29.6 µM (active)
[9]
  IC50: > 100 µM (active)

## COc1ccccc1/C=C(/C(=O)OCC(=O)Nc1ccccc1C)c1ccccc1
[6]
  IC50: 9.36 µM (not active)

## O=C(NC1CCCC1)c1csc2c1CCCC2
[7]
  EC50: > 112 µM (not active)
[8]
  EC50: > 112 µM (not active)

## CC(=O)C1=C(C)NC(SCC(=O)c2ccccc2)=C(C#N)C1c1ccco1 (configuration not stated)
[3]
  EC50: 11 µM (active)
[4]
  EC50: 26.5 µM (active)
[5]
  EC50: 19.5 µM (active)

## Cc1ccc2nc(N3CCN(C(=O)c4ccco4)CC3)sc2c1
[3]
  EC50: 5.76 µM (active)
[4]
  EC50: > 120 µM (not active)
[5]
  EC50: 34.9 µM (active)

## CN(C)c1nn(C(=O)Nc2ccc(Cl)cc2Cl)cc1-c1ccccc1
[9]
  IC50: 38 µM (active)

## CCC1CCCCN1CCCNC(=O)Cn1c2ccccc2c2nc(=O)cc(C)n21 (configuration not stated)
[3]
  EC50: > 120 µM (not active)
[4]
  EC50: > 120 µM (not active)
[5]
  EC50: > 120 µM (not active)
